These results are taken from ChEMBL document CHEMBL3988442, “University of Dundee, Small-Polar-MMV Screening Library” (2021).

“And” between values parts separate entries of the source, which are not always exact repeats. Equal entries are not always repeated.

For assay [1], the target named is T1, Ubiquitin-activating enzyme e1, putative (Leishmania donovani (strain BPK282A1), UniProt E9BSI1).
T1 sequence (E9BSI1 whole entry): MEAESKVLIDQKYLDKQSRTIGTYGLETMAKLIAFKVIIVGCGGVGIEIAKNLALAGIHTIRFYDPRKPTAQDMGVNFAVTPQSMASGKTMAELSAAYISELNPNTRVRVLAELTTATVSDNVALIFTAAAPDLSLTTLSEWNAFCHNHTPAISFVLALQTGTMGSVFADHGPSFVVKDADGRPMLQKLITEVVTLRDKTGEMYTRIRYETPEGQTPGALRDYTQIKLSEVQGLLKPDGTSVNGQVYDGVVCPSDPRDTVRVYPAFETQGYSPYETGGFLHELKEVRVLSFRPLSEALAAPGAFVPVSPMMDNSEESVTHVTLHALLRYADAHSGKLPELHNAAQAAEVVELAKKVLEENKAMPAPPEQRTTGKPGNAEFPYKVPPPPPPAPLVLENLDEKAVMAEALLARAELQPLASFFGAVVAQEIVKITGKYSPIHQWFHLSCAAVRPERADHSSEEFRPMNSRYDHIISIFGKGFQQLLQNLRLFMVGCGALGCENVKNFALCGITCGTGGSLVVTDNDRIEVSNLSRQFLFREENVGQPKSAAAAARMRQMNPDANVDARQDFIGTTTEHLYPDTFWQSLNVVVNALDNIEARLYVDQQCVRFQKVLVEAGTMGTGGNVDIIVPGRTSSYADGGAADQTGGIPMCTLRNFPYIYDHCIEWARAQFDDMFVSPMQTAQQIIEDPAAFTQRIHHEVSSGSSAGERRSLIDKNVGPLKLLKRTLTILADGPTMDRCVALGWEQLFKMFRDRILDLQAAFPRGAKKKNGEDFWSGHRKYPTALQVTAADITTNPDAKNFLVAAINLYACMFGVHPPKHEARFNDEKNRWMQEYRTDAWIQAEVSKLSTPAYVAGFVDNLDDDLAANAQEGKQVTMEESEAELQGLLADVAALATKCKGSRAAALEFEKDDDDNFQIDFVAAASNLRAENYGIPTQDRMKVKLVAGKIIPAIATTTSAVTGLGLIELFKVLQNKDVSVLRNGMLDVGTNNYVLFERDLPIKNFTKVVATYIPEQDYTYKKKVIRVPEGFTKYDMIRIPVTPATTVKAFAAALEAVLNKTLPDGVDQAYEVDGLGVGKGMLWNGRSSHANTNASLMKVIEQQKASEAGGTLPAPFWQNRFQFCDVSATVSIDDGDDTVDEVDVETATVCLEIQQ
Description: Leishmania donovani Ubiquitin Activating Enzyme (LdE1). Type of assay: functional.

The target of assay [2] is T2, Histidine--tRNA ligase (Leishmania infantum, UniProt A4I591).
T2 sequence (A4I591 whole entry): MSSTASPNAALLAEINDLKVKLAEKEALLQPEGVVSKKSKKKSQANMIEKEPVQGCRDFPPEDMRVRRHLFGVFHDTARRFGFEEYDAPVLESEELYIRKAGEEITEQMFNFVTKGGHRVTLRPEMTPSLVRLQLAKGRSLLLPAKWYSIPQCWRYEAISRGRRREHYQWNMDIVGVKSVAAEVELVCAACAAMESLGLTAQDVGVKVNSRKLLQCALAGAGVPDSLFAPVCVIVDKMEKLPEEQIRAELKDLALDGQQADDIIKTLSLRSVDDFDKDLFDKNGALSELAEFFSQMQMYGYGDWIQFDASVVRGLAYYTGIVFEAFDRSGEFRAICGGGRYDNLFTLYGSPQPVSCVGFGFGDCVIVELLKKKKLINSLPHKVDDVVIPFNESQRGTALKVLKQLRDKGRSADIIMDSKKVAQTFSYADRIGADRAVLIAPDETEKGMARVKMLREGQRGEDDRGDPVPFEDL
Briefly: Leishmania infantum Histidine tRNA synthetase (LdHisRS). Format: functional.

Assay [3] deals with Protein translocase subunit SecA (Escherichia coli (strain K12), UniProt P10408). Description: Assay to Identify E. coli SecA ATPase Inhibitors. Format: functional.
For assay [4], the target named is ClpP1P2 (Mycobacterium tuberculosis (strain ATCC 25618 / H37Rv), UniProt P9WPC3+P9WPC5). Description: in vitro assay to detect presence of AMC directly proportional to the activity of ClpP1P2. GHDDI collaboration. Type of assay: functional.
Assay [5] concerns the target Lysine--tRNA ligase (Plasmodium falciparum (isolate 3D7), UniProt Q8IDJ8). Description: Pf-KRS-1 (Lysyl-RNA Synthetase-1, KRS-1, cytosolic KRS) from Plasmodium falciparum. Inhibitor assay, 384 well plate, luminescence read. Type of assay: functional.
Assay [6] addresses T3, Histidine--tRNA ligase (Trypanosoma cruzi (strain CL Brener), UniProt Q4DA54).
T3 sequence (Q4DA54 whole entry): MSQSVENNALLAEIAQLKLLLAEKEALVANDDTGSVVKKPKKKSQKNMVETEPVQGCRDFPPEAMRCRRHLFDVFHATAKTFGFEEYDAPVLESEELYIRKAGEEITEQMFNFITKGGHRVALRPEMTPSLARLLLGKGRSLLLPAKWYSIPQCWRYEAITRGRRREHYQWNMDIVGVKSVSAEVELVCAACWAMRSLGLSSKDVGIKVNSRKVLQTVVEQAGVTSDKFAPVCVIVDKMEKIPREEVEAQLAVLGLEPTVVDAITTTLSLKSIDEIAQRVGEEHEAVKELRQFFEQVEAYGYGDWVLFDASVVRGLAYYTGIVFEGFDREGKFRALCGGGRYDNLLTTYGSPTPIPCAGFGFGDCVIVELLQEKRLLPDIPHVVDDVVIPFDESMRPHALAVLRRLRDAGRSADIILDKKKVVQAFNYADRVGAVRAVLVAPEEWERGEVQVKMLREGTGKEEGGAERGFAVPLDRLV
Description: Trypanosoma cruzi histidyl tRNA synthetase (Tc-HisRS). Format: functional.

A short description of assay [7]: In vitro enzyme assay to detect hydrolysis of chlorophenol red-beta-D-[…] directly proportional to the number of Toxoplasma stably expressing beta-galactosidase. Type of assay: functional, organism-based, Toxoplasma gondii. The conditions noted are these: Toxoplasma gondii.
Assay [8] in a line: To identify inhibition of the IFN signalling (Jak-Stat) pathway via expression of an eGFP reporter gene under the control of an IFN-stimulated response element (ISRE) containing MxA promoter. Type of assay: functional, Homo sapiens. Background: In a reporter assay the amount or activity of a reporter protein is the signal.
In assay [9] the target is T4, Shiga toxin 2 (Escherichia coli O157:H7, UniProt P09385+P09386).
T4 sequence (P09385 whole entry): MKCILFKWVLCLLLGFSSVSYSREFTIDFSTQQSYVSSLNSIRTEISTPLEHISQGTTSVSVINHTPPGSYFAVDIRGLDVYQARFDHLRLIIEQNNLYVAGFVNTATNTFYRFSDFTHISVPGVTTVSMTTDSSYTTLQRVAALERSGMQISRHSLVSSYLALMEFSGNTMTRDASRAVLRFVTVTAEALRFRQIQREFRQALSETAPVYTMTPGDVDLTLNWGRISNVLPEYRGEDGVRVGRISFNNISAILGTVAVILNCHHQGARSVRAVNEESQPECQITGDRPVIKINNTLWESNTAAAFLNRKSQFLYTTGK
T4 sequence (P09386 whole entry): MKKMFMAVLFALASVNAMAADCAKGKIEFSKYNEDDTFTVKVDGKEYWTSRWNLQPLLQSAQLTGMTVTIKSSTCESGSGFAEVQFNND
Description: E. coli 0.157:H7 Shiga Toxin SOP - stx2 screening assay. Type of assay: functional.

Assay [10] in a line: microbe, parasite or virus in culture. The conditions noted are these: Mycobacterium tuberculosis, 96 h, read-out: pIC50 (converted).
Assay [11] can be described thus: microbe, parasite or virus in culture. The conditions noted are these: Mycobacterium tuberculosis, 72 h, read-out: pIC50 (converted).
Assay [12] concerns the target Chromo domain-containing protein 1 (Saccharomyces cerevisiae (strain ATCC 204508 / S288c) (Baker's yeast), UniProt P32657). Description: ScCHD-1 Enzyme Inhibition Assay. Format: functional.

Chain of ClpP1P2 (P9WPC5 whole entry): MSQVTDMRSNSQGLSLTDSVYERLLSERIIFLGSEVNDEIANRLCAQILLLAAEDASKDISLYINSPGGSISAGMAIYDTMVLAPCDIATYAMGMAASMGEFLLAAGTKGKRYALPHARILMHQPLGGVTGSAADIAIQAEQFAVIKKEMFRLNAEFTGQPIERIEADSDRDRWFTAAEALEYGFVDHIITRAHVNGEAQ
Chain of ClpP1P2 (P9WPC3 whole entry): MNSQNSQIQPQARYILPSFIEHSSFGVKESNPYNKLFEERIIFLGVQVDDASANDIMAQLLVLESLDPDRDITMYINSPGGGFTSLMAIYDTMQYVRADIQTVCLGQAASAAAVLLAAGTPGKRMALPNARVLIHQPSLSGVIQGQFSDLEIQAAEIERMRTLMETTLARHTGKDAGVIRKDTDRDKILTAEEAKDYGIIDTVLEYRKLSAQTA
Chain of Lysine--tRNA ligase (Q8IDJ8 whole entry): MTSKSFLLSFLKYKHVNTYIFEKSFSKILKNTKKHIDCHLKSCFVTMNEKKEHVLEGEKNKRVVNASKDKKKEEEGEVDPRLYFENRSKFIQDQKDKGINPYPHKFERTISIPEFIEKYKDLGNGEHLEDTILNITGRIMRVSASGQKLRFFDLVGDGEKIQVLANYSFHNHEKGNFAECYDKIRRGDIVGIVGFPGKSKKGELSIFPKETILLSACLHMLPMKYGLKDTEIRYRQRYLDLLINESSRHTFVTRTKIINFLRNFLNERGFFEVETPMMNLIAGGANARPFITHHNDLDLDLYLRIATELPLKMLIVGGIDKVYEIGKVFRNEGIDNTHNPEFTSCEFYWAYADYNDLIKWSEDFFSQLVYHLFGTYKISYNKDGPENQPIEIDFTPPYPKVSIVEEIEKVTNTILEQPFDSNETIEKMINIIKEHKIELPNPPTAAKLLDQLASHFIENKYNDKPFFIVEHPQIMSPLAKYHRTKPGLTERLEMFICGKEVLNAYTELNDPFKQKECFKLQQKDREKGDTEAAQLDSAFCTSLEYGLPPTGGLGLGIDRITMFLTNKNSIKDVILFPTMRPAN
Chain of Protein translocase subunit SecA (P10408 whole entry): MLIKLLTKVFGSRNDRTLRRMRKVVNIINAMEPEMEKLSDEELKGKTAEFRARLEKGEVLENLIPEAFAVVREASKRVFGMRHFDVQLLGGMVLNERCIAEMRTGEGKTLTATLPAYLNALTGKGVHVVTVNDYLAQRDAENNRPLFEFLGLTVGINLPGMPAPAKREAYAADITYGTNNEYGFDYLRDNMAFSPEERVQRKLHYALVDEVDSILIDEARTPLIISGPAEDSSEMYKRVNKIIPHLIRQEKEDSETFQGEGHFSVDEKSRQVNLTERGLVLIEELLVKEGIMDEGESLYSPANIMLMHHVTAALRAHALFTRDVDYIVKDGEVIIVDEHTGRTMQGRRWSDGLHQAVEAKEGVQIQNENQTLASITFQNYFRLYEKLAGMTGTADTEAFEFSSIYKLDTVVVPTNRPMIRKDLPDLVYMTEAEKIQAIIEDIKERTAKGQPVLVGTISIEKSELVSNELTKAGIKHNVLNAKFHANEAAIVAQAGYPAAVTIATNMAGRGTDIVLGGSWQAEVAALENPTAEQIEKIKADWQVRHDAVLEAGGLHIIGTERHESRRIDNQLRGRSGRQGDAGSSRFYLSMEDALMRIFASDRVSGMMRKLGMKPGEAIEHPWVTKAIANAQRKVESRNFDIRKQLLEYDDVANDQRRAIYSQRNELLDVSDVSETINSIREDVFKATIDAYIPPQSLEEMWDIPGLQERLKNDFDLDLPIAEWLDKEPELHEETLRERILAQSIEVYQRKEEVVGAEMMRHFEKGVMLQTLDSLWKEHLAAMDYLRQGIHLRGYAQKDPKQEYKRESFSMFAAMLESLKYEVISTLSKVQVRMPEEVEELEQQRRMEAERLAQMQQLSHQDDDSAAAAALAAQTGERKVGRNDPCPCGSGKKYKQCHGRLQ
Chain of Chromo domain-containing protein 1 (P32657 whole entry, the tested form may be a part): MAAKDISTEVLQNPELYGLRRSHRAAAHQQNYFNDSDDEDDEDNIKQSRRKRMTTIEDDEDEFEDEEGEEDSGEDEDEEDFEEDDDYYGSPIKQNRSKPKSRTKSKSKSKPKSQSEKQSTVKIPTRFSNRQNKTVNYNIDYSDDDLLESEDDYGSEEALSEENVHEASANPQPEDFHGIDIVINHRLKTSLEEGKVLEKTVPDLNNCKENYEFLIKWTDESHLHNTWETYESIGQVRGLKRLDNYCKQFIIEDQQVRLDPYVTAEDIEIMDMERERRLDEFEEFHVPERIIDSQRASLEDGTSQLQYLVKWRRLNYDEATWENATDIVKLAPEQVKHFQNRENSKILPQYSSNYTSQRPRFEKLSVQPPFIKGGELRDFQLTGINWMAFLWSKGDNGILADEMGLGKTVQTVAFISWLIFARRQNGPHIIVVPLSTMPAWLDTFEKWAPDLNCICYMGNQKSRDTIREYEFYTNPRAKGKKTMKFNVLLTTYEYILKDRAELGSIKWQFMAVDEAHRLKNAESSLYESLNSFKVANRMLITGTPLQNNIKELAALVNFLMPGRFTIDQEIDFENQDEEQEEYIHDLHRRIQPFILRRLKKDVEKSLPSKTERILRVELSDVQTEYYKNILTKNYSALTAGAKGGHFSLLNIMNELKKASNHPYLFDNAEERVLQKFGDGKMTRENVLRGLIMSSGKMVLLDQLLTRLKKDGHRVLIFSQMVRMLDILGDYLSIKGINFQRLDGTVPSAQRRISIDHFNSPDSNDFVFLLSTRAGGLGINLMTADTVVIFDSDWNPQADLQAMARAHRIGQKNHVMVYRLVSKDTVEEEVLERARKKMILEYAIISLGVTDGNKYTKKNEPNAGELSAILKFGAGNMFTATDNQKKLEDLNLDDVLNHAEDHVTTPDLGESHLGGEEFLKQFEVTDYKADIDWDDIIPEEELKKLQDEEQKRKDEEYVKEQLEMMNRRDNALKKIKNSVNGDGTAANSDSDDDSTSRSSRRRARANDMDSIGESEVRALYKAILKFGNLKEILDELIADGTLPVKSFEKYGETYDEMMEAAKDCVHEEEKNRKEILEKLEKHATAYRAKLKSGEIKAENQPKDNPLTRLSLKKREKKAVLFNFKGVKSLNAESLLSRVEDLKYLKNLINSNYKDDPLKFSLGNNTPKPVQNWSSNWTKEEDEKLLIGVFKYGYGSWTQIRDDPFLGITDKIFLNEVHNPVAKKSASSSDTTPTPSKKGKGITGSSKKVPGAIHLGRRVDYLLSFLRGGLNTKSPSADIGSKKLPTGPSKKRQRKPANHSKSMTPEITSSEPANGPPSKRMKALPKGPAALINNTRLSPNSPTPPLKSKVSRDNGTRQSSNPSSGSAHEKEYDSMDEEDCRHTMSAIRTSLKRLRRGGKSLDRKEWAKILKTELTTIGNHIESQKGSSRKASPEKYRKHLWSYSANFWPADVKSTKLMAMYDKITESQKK

For `COc1ccc(OC)c(C2CC(=O)Nc3nc(N4CCOCC4)sc32)c1` (stereo not given), the IC50 in [1] was over 100 µM; in assay [2], 0.373 µM and 0.317 µM; in assay [3] it was > 100 µM and 34.1 µM; in assay [4], over 100 µM; in [5], over 50.1 µM; in assay [6] it was 3.5 µM and 4.23 µM.
Take `COc1cccc(C2CC(=O)Nc3nc(N4CCCCC4)sc32)c1OC` (stereo not given): the IC50 in assay [1] was 81.5 µM and 75 µM; in assay [2], 0.423 µM and 0.346 µM; in assay [3] it was 22.7 µM and 22.6 µM; in assay [4] it was over 100 µM; in assay [5] it was over 50.1 µM; in assay [6], 2.42 µM and 4.13 µM.
Usually pIC50 stands for the IC50 on a negative log10 scale, so that one unit is a factor of ten. Regarding `N#Cc1ccc(NCCNc2ccc(C(F)(F)F)cn2)nc1`, the values for the IC50 in assay [7] and in [9] were 22.7 µM and over 100 µM, respectively. The negative logarithm of the IC50 (pIC50) in [8] stood at 5.715.
In assay [9], `CCOc1ccccc1C(=O)N1CCCC1c1ncc2c(n1)CCNC2` (stereo not given) had an IC50 of over 100 µM.
The same measure, in the same setting: the result for `CC(C)(C)NC(=O)NC(=O)CNC(C)(C)c1ccc2c(c1)OCCO2` reads over 100 µM; that for `O=S(=O)(c1ccccc1)N1CCCCC1c1cc[nH]n1` (stereo not given), over 100 µM.
Regarding `O=C1CC(c2ccccc2C(F)(F)F)c2sc(N3CCOCC3)nc2N1` (stereo not given), the IC50 in assay [1] is over 100 µM; in assay [3], over 100 µM; in assay [4], over 100 µM; in assay [5], over 50.1 µM; in assay [6], 10.8 µM and 16.3 µM.
The compound `CN(Cc1ccsc1)C(=O)CS(=O)(=O)Cc1ccc(Cl)c(Cl)c1` gave an IC50 in [9] of over 100 µM.
In the case of `O=S(=O)(CCN1CCOC(Cn2cccn2)C1)C(F)(F)F` (stereo not given), the IC50 in [10] was over 50.1 µM; in assay [11], 28.9 µM; in [12], over 29.5 µM; in assay [9], 15 µM and 14 µM.
With `Cc1noc(NC(=O)c2ccc(Br)s2)n1`, the IC50 in assay [10] was 42.5 µM; in assay [11], 32.8 µM; in [9], over 100 µM.
The compound `Nc1cc(CCC2CN(Cc3ccc(C(=O)O)cc3)CCO2)ccn1` (stereo not given) showed an IC50 in assay [9] of over 100 µM.
Still for that read-out and setting: the result for `Cn1cc(C(=O)N2CCC(Cc3nccs3)CC2)cn1` reads over 100 µM.
On to `Cc1cc(-c2nn(C)c(Cl)c2CN2Cc3ccccc3C(O)C2)no1` (stereo not given), for which the IC50 is 16.7 µM and 20.3 µM in assay [2]; over 50.1 µM in [5]; 41.5 µM and > 100 µM in assay [9].
Take `COc1ccc(C2CC(=O)Nc3nc(N4CCOCC4)sc32)cc1` (stereo not given): the IC50 is over 100 µM in [1]; 1.79 µM and 2.45 µM and 2.49 µM and 2.07 µM in assay [2]; 37.3 µM and > 100 µM in assay [3]; over 100 µM in assay [4]; over 50.1 µM in [5]; 10.8 µM and 8.7 µM in [6].
Turning to `COc1c(CNC(c2ccc(F)cc2)C(C)(C)C)c(C)nn1C` (stereo not given), in assay [9], the IC50 was over 100 µM.
With `COc1ccccc1C1CC(=O)Nc2nc(N3CCCCC3)sc21` (stereo not given), the IC50 in assay [1] is 54.8 µM and 48.5 µM; in assay [2], 0.231 µM; in assay [3], 22.1 µM and 29.4 µM; in assay [4] it was over 100 µM; in [5], over 50.1 µM; in assay [6], 2.4 µM and 1.34 µM.
In turn, `COc1ccc(C)cc1CN(C)Cc1nc2c(cnn2C)c(=O)[nH]1` gave an IC50 in [9] of over 100 µM.
